From BigSolDB 2.1

Nc1cc([N+](=O)[O-])ccc1Cl
solubility (mole fraction)
Settings	273.15 K	278.15 K	283.15 K	288.15 K	293.15 K	298.15 K	303.15 K	308.15 K	313.15 K
in 1,4-dioxane	–	–	–	0.11	0.119	0.13	0.142	0.154	0.169
in 2-butanone	0.0877	0.0973	0.108	0.119	0.13	0.141	0.153	0.165	0.179
in NMP	0.155	0.161	0.166	0.173	0.179	0.186	0.193	0.201	0.209
in acetone	0.103	0.112	0.122	0.133	0.144	0.156	0.168	0.182	0.197
in acetonitrile	0.0222	0.0277	0.0342	0.0413	0.0495	0.0579	0.0671	0.077	0.0877
in ethanol	0.0097	0.0112	0.0129	0.0149	0.0173	0.0198	0.0227	0.0258	0.0297
in ethyl acetate	0.0765	0.0836	0.0915	0.0991	0.107	0.116	0.126	0.135	0.145
in isopropanol	0.0047	0.0059	0.0074	0.0091	0.0109	0.0132	0.0158	0.0188	0.0226
in methanol	0.0071	0.0085	0.01	0.0118	0.0141	0.0165	0.0193	0.0227	0.0263
in n-butanol	0.0055	0.0069	0.0086	0.0104	0.0128	0.0153	0.0182	0.0213	0.0252
in n-propanol	0.008	0.0094	0.011	0.0129	0.0152	0.0177	0.0209	0.0246	0.0283
in toluene	0.0118	0.0134	0.0153	0.0174	0.0199	0.0231	0.0268	0.0309	0.0352
